Measurements: US9981964B2 (Agency for Science, Technology and Research, priority 2013, dated 2018)

Columns and labels:
MMTV-Wnt1 tumor = assay type: in vivo, BALBc mice; conditions: daily treatment for 14 days, FIG. 2 and FIG. 3
Experimental: 8-10 weeks old Female BALBc mice were anesthetised with 150 mg/kg Ketamine +75 mg/kg Xylazine. Under aseptic conditions, skin near the 4th mammary fat pad was incised, Mammary fat pad was tweaked with forceps and tumor fragment ˜2 mm^3 was implanted. The incision was closed using a tissue adhesive. Animals were randomised into groups of eight and treated daily with the test compounds for 14 days. Tumors were measured in two dimensions using calipers, and volume was calculated using the formula: Tumor Volume (mm^3)=[…]. Maximum tumor volume limit was 2000 mm^3.

HEK293-STF3A cells = assay: STF3A assay (STF luciferase reporter in Wnt3A-expressing HEK293 cells); assay type: cell-based; conditions: Homo sapiens, 24 h, 1 day of treatment
In short: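 HEK293 cells carrying the STF reporter and expressing Wnt3A, seeded 2×10^4 per well overnight, then treated 1 day with compound at final 50 μM to 1.5 nM. Luciferase activity read by luminescence after Steady-Glo reagent, 10 min at room temperature.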

mammalian PORCN = assay: PORCN-null HT1080 cells transfected with mammalian PORCN, WNT3A and STF reporter, luciferase; assay type: cell-based; conditions: STF luciferase, FIG. 1
Experimental: PORCN-null HT1080 cells were transfected with mammalian or Xenopus PORCN expression plasmids, along with WNT3A, STF reporter and mCherry as transfection control. 6 hours after transfection, cells were treated with the compounds or DMSO as indicated, and the following day assayed for luciferase. Xenopus PORCN was resistant to the inhibitory effects of compounds.

| Structure (SMILES) | tumor growth in treated mice (MMTV-Wnt1 tumor) | IC50 (HEK293-STF3A cells) | inhibition of the activity of mammalian porcupine (mammalian PORCN) |
| --- | --- | --- | --- |
| O=C(CN1CCCC2=C1C(=O)N(C1CC1)C2=O)Nc1ccc(-c2cncc(F)c2)nn1 [Compound 52, 2-(6-cyclopropyl-5,7-dioxo-2,3,4,5,6,7-hexahydro-1H-pyrrolo[3,4-b]pyridin-1-yl)-N-(6-(5-fluoropyridin-3-yl)pyridazin-3-yl)acetamide] | decreased tumor growth in all the treated mice | < 100 nM |  |
| Cc1ccccc1-c1ccc(NC(=O)CN2CCCC3=C2C(=O)N(C)C3=O)nn1 [Compound 27, 2-(6-methyl-5,7-dioxo-2,3,4,5,6,7-hexahydro-1H-pyrrolo[3,4-b]pyridin-1-yl)-N-(6-(o-tolyl)pyridazin-3-yl)acetamide] |  | < 1000 nM |  |
| Cc1cccc(-c2ccc(NC(=O)CN3CCCC4=C3C(=O)N(C)C4=O)cn2)c1 [Compound 131, 2-(6-methyl-5,7-dioxo-2,3,4,5,6,7-hexahydro-1H-pyrrolo[3,4-b]pyridin-1-yl)-N-(6-(m-tolyl)pyridin-3-yl)acetamide] |  | < 100 nM |  |
| O=C(CN1CCCC2=C1C(=O)N(C1CC1)C2=O)Nc1ccc(-c2cccnc2F)nc1 [Compound 135, 2-(6-cyclopropyl-5,7-dioxo-2,3,4,5,6,7-hexahydro-1H-pyrrolo[3,4-b]pyridin-1-yl)-N-(2′-fluoro-2,3′-bipyridin-5-yl)acetamide] |  | < 100 nM |  |
| C[C@@H](C(=O)Nc1ccc(-c2cccnc2)cn1)N1CCCC2=C1C(=O)N(C)C2=O (single isomer, unassigned) [Compound 92] |  | < 100 nM |  |
| COc1ccc(-c2ccc(NC(=O)CN3CCCC4=C3C(=O)N(C)C4=O)nn2)cc1 [Compound 31, N-(6-(4-methoxyphenyl)pyridazin-3-yl)-2-(6-methyl-5,7-dioxo-2,3,4,5,6,7-hexahydro-1H-pyrrolo[3,4-b]pyridin-1-yl)acetamide] |  | < 100 nM |  |
| COc1cccc(-c2ccc(NC(=O)CN3CCCC4=C3C(=O)N(C)C4=O)nn2)c1 [Compound 32, N-(6-(3-methoxyphenyl)pyridazin-3-yl)-2-(6-methyl-5,7-dioxo-2,3,4,5,6,7-hexahydro-1H-pyrrolo[3,4-b]pyridin-1-yl)acetamide] |  | < 100 nM |  |
| O=C(CN1CCCC2=C1C(=O)N(C1CC1)C2=O)Nc1ccc(-c2cccnc2)cn1 [Compound 14, N-([3,3′-bipyridin]-6-yl)-2-(6-cyclopropyl-5,7-dioxo-2,3,4,5,6,7-hexahydro-1 H-pyrrolo[3,4-b]pyridin-1-yl)acetamide] |  | < 100 nM | inhibit the activity of mammalian porcupine |
| Cc1ccc(-c2ccc(NC(=O)CN3CCCC4=C3C(=O)N(C)C4=O)nn2)cc1 [Compound 30, 2-(6-methyl-5,7-dioxo-2,3,4,5,6,7-hexahydro-1H-pyrrolo[3,4-b]pyridin-1-yl)-N-(6-(p-tolyl)pyridazin-3-yl)acetamide] |  | < 100 nM |  |
| CN1C(=O)C2=C(C1=O)N(CC(=O)Nc1ccc(-c3ccccc3)c(F)c1)CCC2 [Compound 80, N-(2-fluoro-[1,1′-biphenyl]-4-yl)-2-(6-methyl-5,7-dioxo-2,3,4,5,6,7-hexahydro-1H-pyrrolo[3,4-b]pyridin-1-yl)acetamide] |  | < 100 nM |  |
| CN1C(=O)C2=C(C1=O)N(CC(=O)Nc1ccc(-c3cccc(F)c3)nc1)CCC2 [Compound 154, N-(6-(3-fluorophenyl)pyridin-3-yl)-2-(6-methyl-5,7-dioxo-2,3,4,5,6,7-hexahydro-1H-pyrrolo[3,4-b]pyridin-1-yl)acetamide] |  | < 100 nM |  |
| Cc1ncccc1-c1ccc(NC(=O)CN2CCCC3=C2C(=O)N(C2CC2)C3=O)cn1 [Compound 121, 2-(6-cyclopropyl-5,7-dioxo-2,3,4,5,6,7-hexahydro-1H-pyrrolo[3,4-b]pyridin-1-yl)-N-(2′-methyl-2,3′-bipyridin-5-yl)acetamide] |  | < 100 nM |  |
| CC(C(=O)Nc1ccc(-c2ccc(F)nc2)cn1)N1CCCC2=C1C(=O)N(C)C2=O (stereo not drawn) [Compound 96, N-(6′-fluoro-3,3′-bipyridin-6-yl)-2-(6-methyl-5,7-dioxo-2,3,4,5,6,7-hexahydro-1H-pyrrolo[3,4-b]pyridin-1-yl)propanamide] |  | < 1000 nM |  |
| COc1cc(-c2ccccc2)ccc1NC(=O)CN1CCCC2=C1C(=O)N(C)C2=O [Compound 81, N-(3-methoxy-[1,1′-biphenyl]-4-yl)-2-(6-methyl-5,7-dioxo-2,3,4,5,6,7-hexahydro-1H-pyrrolo[3,4-b]pyridin-1-yl)acetamide] |  | > 10000 nM |  |
| Cc1nc(-c2cccnc2)ccc1NC(=O)CN1CCCC2=C1C(=O)N(C1CC1)C2=O [Compound 123, 2-(6-cyclopropyl-5,7-dioxo-2,3,4,5,6,7-hexahydro-1H-pyrrolo[3,4-b]pyridin-1-yl)-N-(6-methyl-2,3′-bipyridin-5-yl)acetamide] |  | > 10000 nM |  |
| CN1C(=O)C2=C(C1=O)N(CC(=O)Nc1ccc(-c3cncc(F)c3)nn1)CCC2 [Compound 72, N-(6-(5-fluoropyridin-3-yl)pyridazin-3-yl)-2-(6-methyl-5,7-dioxo-2,3,4,5,6,7-hexahydro-1H-pyrrolo[3,4-b]pyridin-1-yl)acetamide] |  | < 100 nM |  |
| Cc1nc(NC(=O)CN2CCCC3=C2C(=O)N(C2CC2)C3=O)ccc1-c1cccnc1 [Compound 125, 2-(6-cyclopropyl-5,7-dioxo-2,3,4,5,6,7-hexahydro-1H-pyrrolo[3,4-b]pyridin-1-yl)-N-(2-methyl-[3,3′-bipyridin]-6-yl)acetamide] |  | < 1000 nM |  |
| Cc1cc(NC(=O)CN2CCCC3=C2C(=O)N(C2CC2)C3=O)nnc1-c1cccnc1 [Compound 62, 2-(6-cyclopropyl-5,7-dioxo-2,3,4,5,6,7-hexahydro-1H-pyrrolo[3,4-b]pyridin-1-yl)-N-(5-methyl-6-(pyridin-3-yl)pyridazin-3-yl)acetamide] |  | < 5000 nM |  |
| CN1C(=O)C2=C(C1=O)N(CC(=O)Nc1ccc(-c3ccc(F)cc3)cn1)CCC2 [Compound 7, N-(5-(4-fluorophenyl)pyridin-2-yl)-2-(6-methyl-5,7-dioxo-2,3,4,5,6,7-hexahydro-1H-pyrrolo[3,4-b]pyridin-1-yl)acetamide] |  | < 100 nM |  |
| CN1C(=O)C2=C(C1=O)N(CC(=O)Nc1ccc(-c3ccc(F)cc3)nn1)CCC2 [Compound 4, N-(6-(4-fluorophenyl)pyridazin-3-yl)-2-(6-methyl-5,7-dioxo-2,3,4,5,6,7-hexahydro-1H-pyrrolo[3,4-b]pyridin-1-yl)acetamide] |  | < 100 nM |  |
| CN1C(=O)C2=C(C1=O)N(CC(=O)Nc1ccc(-c3cccnc3)nc1)CCC2 [Compound 10, N-([2,3′-bipyridin]-5-yl)-2-(6-methyl-5,7-dioxo-2,3,4,5,6,7-hexahydro-1H-pyrrolo[3,4-b]pyridin-1-yl)acetamide] |  | < 100 nM |  |
| Cc1ccnc(-c2ccc(NC(=O)CN3CCCC4=C3C(=O)N(C3CC3)C4=O)nc2)c1 [Compound 150, 2-(6-cyclopropyl-5,7-dioxo-2,3,4,5,6,7-hexahydro-1H-pyrrolo[3,4-b]pyridin-1-yl)-N-(4-methyl-[2,3′-bipyridin]-6′-yl)acetamide] |  | < 100 nM |  |
| CN1C(=O)C2=C(C1=O)N(CC(=O)Nc1ccc(-c3ccccn3)cc1)CCC2 [Compound 76, 2-(6-methyl-5,7-dioxo-2,3,4,5,6,7-hexahydro-1H-pyrrolo[3,4-b]pyridin-1-yl)-N-(4-(pyridin-2-yl)phenyl)acetamide] |  | < 100 nM |  |
| Cc1ccncc1-c1ccc(NC(=O)CN2CCCC3=C2C(=O)N(C2CC2)C3=O)cn1 [Compound 138, 2-(6-cyclopropyl-5,7-dioxo-2,3,4,5,6,7-hexahydro-1H-pyrrolo[3,4-b]pyridin-1-yl)-N-(4′-methyl-2,3′-bipyridin-5-yl)acetamide] |  | < 1000 nM |  |
| C[C@H](C(=O)Nc1ccc(-c2cccnc2)nc1)N1CCCC2=C1C(=O)N(C)C2=O (single isomer, unassigned) [Compound 117] |  | < 1000 nM |  |
